Test results published in ChEMBL document CHEMBL4725439, “Direct Comparison of (N)-Methanocarba and Ribose-Containing 2-Arylalkynyladenosine Derivatives as A Receptor Agonists” (ACS Med Chem Lett, 2020).
Calls of active or inactive are those of the source. The rule behind the calls is not given here.

Experiments:
[1] = target: Beta-3 adrenergic receptor (Homo sapiens) (UniProt P13945); assay: Displacement of [125I]-Pindolol from human beta3 adrenergic receptor expressed in expressed in HEK Flp-In cells measured after 90 mins by microbeta scintillation counting method; assay type: cell-based
Chain of Beta-3 adrenergic receptor (Homo sapiens) (P13945 whole entry, looked up): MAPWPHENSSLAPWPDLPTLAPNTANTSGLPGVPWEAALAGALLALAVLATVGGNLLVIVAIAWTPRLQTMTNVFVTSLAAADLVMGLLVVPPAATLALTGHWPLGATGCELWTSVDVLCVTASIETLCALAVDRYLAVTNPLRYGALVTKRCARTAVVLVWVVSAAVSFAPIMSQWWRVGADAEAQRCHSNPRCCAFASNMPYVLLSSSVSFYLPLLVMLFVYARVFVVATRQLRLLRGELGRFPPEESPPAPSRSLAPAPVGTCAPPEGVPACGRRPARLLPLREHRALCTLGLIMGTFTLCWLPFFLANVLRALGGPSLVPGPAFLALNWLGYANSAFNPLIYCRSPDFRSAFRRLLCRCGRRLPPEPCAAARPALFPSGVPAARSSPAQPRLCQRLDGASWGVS

[2] = target: T1, Adenosine receptor A1 (Homo sapiens, UniProt P30542); assay: Displacement of [3H]N6-R-phenylisopropyladenosine from human A1AR receptor expressed in HEK293 cells assessed as inhibitory constant by radio ligand binding assay; assay type: cell-based
T1 sequence (P30542 whole entry): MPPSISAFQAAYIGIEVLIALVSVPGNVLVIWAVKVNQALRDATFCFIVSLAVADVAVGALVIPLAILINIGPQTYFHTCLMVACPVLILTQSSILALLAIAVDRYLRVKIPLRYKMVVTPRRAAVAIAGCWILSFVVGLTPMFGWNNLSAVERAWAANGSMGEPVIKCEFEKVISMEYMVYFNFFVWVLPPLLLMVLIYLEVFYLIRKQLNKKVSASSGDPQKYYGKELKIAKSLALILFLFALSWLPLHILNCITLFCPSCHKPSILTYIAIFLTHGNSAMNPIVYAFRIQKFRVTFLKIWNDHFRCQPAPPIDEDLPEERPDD

[3] = target: T2, Adenosine receptor A1 (Mus musculus, UniProt Q60612); assay: Displacement of [125I]AB-MECA from recombinant mouse A1AR expressed in HEK293 cells assessed as inhibitory constant by radio ligand binding assay; assay type: cell-based
T2 sequence (Q60612 whole entry): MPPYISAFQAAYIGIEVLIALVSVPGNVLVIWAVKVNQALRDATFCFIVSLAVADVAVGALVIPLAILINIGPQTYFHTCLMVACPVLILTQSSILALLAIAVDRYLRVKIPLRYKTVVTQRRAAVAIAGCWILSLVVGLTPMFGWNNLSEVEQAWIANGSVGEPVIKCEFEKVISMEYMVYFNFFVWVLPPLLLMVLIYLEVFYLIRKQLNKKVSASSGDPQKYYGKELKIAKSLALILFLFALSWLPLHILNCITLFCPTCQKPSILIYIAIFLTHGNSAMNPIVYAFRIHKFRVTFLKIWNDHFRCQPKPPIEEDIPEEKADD

[4] = target: T3, Adenosine receptor A2a (Homo sapiens, UniProt P29274); assay: Displacement of [3H]2-[p-(2-carboxyethyl)phenyl-ethylamino]-5'-N-ethylcarboxamidoadenosine from human A2A receptor expressed in HEK293 cells at 10 uM by radio ligand binding assay relative to control; assay type: cell-based
T3 sequence (P29274 whole entry): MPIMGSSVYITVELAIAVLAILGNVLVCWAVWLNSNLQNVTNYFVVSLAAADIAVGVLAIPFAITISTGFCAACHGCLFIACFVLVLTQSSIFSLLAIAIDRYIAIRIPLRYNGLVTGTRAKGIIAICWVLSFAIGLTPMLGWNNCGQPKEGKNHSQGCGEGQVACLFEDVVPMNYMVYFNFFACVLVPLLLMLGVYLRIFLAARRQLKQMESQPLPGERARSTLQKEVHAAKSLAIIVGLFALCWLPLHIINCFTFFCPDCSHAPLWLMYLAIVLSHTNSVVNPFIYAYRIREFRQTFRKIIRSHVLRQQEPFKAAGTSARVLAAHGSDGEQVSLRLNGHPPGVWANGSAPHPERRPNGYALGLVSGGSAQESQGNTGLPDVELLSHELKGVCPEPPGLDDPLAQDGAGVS

[5] = target: T4, Adenosine receptor A3 (Homo sapiens, UniProt P0DMS8); assay: Displacement of [125I]N6-(4-amino-3-iodobenzyl)adenosine-5'-N-methyluronamide from human […] expressed in CHO cell membranes assessed as inhibitor constant by radio ligand binding assay
T4 sequence (P0DMS8 whole entry): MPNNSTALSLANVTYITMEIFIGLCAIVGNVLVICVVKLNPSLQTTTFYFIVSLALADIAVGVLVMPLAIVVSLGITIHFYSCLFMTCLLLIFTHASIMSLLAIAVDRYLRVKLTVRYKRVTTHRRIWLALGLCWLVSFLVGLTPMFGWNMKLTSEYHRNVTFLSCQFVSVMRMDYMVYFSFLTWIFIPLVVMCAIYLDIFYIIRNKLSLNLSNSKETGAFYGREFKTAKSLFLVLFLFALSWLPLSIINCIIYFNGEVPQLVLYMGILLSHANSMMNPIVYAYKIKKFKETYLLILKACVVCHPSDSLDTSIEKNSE

[6] = target: T5, Adenosine receptor A3 (Mus musculus, UniProt Q61618); assay: Displacement of [125I]AB-MECA from mouse […] expressed in HEK293 cell membranes assessed as inhibitor constant by radio ligand binding assay
T5 sequence (Q61618 whole entry): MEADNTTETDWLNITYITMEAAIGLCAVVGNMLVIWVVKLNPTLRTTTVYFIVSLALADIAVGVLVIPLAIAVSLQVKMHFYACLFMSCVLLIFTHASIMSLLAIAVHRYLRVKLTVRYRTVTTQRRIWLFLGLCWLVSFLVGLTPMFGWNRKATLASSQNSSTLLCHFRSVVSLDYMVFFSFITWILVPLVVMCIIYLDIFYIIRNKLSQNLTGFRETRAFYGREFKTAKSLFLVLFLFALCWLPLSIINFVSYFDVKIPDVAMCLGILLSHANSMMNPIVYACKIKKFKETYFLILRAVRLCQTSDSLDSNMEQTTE

[7] = Stability in Sprague-Dawley rat plasma; assay type: ADME, cell-free
[8] = Stability in Sprague-Dawley rat liver microsomes; assay type: ADME, Microsome
[9] = test system: HepG2; assay: Cytotoxicity against human HepG2 cells; assay type: cell-based
[10] = Oral bioavailability in Sprague-Dawley rat; assay type: ADME, organism-based; conditions: in vivo
[11] = target: T6, Adenosine receptor A1 (Homo sapiens) (UniProt P30542); assay: Displacement of [3H]N6-R-phenylisopropyladenosine from human A1AR expressed in HEK293 cells at 10 uM by radio ligand binding assay relative to control; assay type: cell-based
T6 sequence (whole entry): T1 sequence (P30542 whole entry)

[12] = target: T7, Adenosine receptor A1 (Mus musculus) (UniProt Q60612); assay: Displacement of [125I]AB-MECA from recombinant mouse A1AR expressed in HEK293 cells at 10 uM by radio ligand binding assay relative to control; assay type: cell-based; conditions: filed as agonist
T7 sequence (whole entry): T2 sequence (Q60612 whole entry)

[13] = target: Adenosine receptor A2a (Mus musculus) (UniProt Q60613); assay: Displacement of [3H]CGS21680 from mouse A2A receptor expressed in HEK293 cells at 10 uM by radio ligand binding assay relative to control; assay type: cell-based
Chain of Adenosine receptor A2a (Mus musculus) (Q60613 whole entry): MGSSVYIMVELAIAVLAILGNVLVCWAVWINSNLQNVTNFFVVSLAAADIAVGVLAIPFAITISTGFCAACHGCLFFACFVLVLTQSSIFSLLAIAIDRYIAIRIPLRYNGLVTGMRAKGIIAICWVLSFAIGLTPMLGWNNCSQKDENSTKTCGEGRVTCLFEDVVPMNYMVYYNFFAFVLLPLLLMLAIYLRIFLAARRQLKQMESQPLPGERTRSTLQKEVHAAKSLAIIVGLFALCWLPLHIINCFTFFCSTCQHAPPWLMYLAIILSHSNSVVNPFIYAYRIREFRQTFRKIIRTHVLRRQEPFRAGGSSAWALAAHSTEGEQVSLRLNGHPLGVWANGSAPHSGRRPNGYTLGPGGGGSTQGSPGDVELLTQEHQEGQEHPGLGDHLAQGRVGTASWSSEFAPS

[14] = target: T3, Adenosine receptor A2a; assay: Displacement of [3H]2-[p-(2-carboxyethyl)phenyl-ethylamino]-5'-N-ethylcarboxamidoadenosine from human A2A receptor expressed in HEK293 cells assessed as inhibitor constant by radio ligand binding assay; assay type: cell-based
[15] = target: T8, Adenosine receptor A2b (Homo sapiens) (UniProt P29275); assay: Agonist activity at Gs-coupled human A2B […] receptor expressed in CHO at 10 uM by cAMP based assay; assay type: functional, cell-based
T8 sequence (whole entry): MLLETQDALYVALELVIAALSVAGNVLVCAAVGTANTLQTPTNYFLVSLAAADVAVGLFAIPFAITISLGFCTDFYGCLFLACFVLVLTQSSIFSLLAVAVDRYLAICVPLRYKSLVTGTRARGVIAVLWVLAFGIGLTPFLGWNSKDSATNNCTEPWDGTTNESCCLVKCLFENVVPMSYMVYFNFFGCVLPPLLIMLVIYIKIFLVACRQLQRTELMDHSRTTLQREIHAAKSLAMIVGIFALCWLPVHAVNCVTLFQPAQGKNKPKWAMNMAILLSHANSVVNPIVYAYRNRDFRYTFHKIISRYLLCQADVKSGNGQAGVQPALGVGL

[16] = target: T4, Adenosine receptor A3; assay: Binding affinity to human A3AR assessed as inhibitor constant
[17] = target: 5-hydroxytryptamine receptor 2B (Homo sapiens, UniProt P41595); assay: Displacement of [3H]-LSD from recombinant human 5HT2B receptor expressed in stable HEK cells after 90 mins by microbeta scintillation counting method; assay type: cell-based
Chain of 5-hydroxytryptamine receptor 2B (P41595 whole entry): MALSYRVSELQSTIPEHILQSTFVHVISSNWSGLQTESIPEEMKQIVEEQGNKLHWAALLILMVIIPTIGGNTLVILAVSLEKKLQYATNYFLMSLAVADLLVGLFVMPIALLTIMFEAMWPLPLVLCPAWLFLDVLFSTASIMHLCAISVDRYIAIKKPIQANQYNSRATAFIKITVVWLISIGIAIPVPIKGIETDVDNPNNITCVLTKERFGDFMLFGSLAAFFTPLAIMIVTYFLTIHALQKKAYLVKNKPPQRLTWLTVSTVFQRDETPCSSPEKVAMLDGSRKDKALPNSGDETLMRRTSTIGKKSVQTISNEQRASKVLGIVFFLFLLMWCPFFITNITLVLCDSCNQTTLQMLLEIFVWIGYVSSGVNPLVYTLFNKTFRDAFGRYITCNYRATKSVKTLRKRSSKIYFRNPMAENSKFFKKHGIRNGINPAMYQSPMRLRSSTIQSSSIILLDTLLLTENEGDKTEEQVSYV

[18] = target: Sodium-dependent dopamine transporter (Homo sapiens, UniProt Q01959); assay: Displacement of [3H]-Win35428 from human recombinant DAT receptor expressed in stable HEK cells after 90 mins by microbeta scintillation counting method; assay type: cell-based
Chain of Sodium-dependent dopamine transporter (Q01959 whole entry): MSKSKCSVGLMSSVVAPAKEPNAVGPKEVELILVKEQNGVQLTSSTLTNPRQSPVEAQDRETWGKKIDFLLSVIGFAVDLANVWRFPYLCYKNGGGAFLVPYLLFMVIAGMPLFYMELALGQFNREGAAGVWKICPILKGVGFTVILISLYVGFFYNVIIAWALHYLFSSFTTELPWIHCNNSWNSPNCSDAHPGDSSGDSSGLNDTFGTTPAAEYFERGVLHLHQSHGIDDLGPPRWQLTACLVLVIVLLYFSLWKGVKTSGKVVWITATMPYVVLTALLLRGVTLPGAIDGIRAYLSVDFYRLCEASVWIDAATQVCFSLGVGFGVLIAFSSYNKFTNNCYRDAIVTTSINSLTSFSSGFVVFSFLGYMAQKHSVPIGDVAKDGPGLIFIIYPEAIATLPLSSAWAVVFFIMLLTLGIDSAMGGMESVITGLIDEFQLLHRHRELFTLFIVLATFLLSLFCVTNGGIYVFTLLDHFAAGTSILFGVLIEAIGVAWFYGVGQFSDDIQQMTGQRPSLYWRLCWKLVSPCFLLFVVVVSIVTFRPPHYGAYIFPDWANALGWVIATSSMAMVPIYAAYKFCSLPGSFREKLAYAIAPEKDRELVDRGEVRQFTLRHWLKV

## CNC(=O)[C@@]12C[C@@H]1[C@@H](n1cnc3c(NC)cc(C#Cc4ccc(Cl)s4)nc31)[C@H](O)[C@@H]2O
[1]
  Activity: Active

## CCOC(=O)[C@@]12C[C@@H]1[C@@H](n1cnc3c(NC)nc(C#Cc4ccc(F)s4)nc31)[C@H](O)[C@@H]2O
[2]
  Ki: 1670 nM
[3]
  Ki: 864 nM
[4]
  inhibition: 27%
[5]
  Ki: 10.4 nM
[6]
  Ki: 625 nM

## CCNc1cc(C#Cc2ccc(Cl)s2)nc2c1ncn2[C@H]1[C@H](O)[C@H](O)[C@]2(C(=O)NC)C[C@H]12
[1]
  Activity: Active
[7]
  Stabilty: Stable
[8]
  Stabilty: Stable
[9]
  Activity: Non-Toxic
[10]
  bioavailability: 14%

## CNc1nc(C#Cc2ccc(Cl)s2)nc2c1ncn2[C@@H]1O[C@H](C(=O)OC)[C@@H](O)[C@H]1O
[11]; filed as agonist
  inhibition: 46%
[12]
  inhibition: 53%
[4]
  inhibition: 8%
[13]
  inhibition: 12%

## CCOC(=O)[C@@]12C[C@@H]1[C@@H](n1cnc3c(NC)cc(C#Cc4ccc(Cl)s4)nc31)[C@H](O)[C@@H]2O
[11]
  inhibition: 17%
[12]
  inhibition: 54%
[4]
  inhibition: 18%
[13]
  inhibition: 5%

## CNC(=O)[C@@]12C[C@@H]1[C@@H](n1cnc3c(NC)nc(C#Cc4ccc(F)s4)nc31)[C@H](O)[C@@H]2O
[11]
  inhibition: 33%
[3]
  Ki: 3260 nM
[14]
  Ki: 4620 nM
[5]
  Ki: 0.28 nM
[6]
  Ki: 85 nM
[7]
  Stabilty: Stable
[8]
  Stabilty: Stable
[9]
  Activity: Non-Toxic
[10]
  bioavailability: 14%
[13]
  inhibition: 5%

## CNC(=O)[C@@]12C[C@@H]1[C@@H](n1cnc3c(NC)nc(C#Cc4ccc(Cl)s4)nc31)[C@H](O)[C@@H]2O
[15]
  Activity: inactive
[7]
  Stabilty: Stable
[8]
  Stabilty: Stable
[9]
  Activity: Non-Toxic
[10]
  bioavailability: 14%

## CCNC(=O)[C@H]1O[C@@H](n2cnc3c(NC)nc(C#C[C@@H](O)c4ccccc4)nc32)[C@H](O)[C@@H]1O
[16]
  Ki: 0.75 nM

## CNC(=O)[C@H]1O[C@@H](n2cnc3c(NC)nc(C#Cc4ccc(Cl)s4)nc32)[C@H](O)[C@@H]1O
[11]; filed as agonist
  inhibition: 58%
[3]
  Ki: 4170 nM
[4]
  inhibition: 7%

## CCNc1nc(C#Cc2ccc(Cl)s2)nc2c1ncn2[C@H]1[C@H](O)[C@H](O)[C@]2(C(=O)NC)C[C@H]12
[7]
  Stabilty: Stable
[8]
  Stabilty: Stable
[9]
  Activity: Non-Toxic
[10]
  bioavailability: 14%

## CCCNc1nc(C#Cc2ccc(F)s2)nc2c1ncn2[C@H]1[C@H](O)[C@H](O)[C@]2(C(=O)NC)C[C@H]12
[2]
  Ki: 3980 nM
[14]
  Ki: 838 nM
[5]
  Ki: 1.13 nM
[6]
  Ki: 10.6 nM
[7]
  Stabilty: Stable
[8]
  Stabilty: Stable
[9]
  Activity: Non-Toxic
[10]
  bioavailability: 14%

## CNC(=O)[C@@]12C[C@@H]1[C@@H](n1cnc3c(NC)cc(C#Cc4ccc(F)s4)nc31)[C@H](O)[C@@H]2O
[11]
  inhibition: 20%
[12]
  inhibition: 51%
[4]; filed as agonist
  inhibition: 56%
[5]
  Ki: 0.896 nM
[6]
  Ki: 37 nM
[1]
  Activity: Active
[13]
  inhibition: 6%

## CCCNc1cc(C#Cc2ccc(Cl)s2)nc2c1ncn2[C@H]1[C@H](O)[C@H](O)[C@]2(C(=O)NC)C[C@H]12
[17]
  Ki: 760 nM
[18]
  Ki: 3940 nM

## CCCNc1nc(C#Cc2ccc(F)s2)nc2c1ncn2[C@@H]1O[C@H](C(=O)NC)[C@@H](O)[C@H]1O
[2]
  Ki: 369 nM
[14]
  Ki: 2460 nM
[5]
  Ki: 8.51 nM
[6]
  Ki: 435 nM

## CNC(=O)[C@H]1O[C@@H](n2cnc3c(NC)nc(C#Cc4ccc(F)s4)nc32)[C@H](O)[C@@H]1O
[2]
  Ki: 432 nM
[4]; filed as agonist
  inhibition: 45%
[5]
  Ki: 2.3 nM
[6]
  Ki: 1510 nM

## CNc1nc(C#Cc2ccc(Cl)s2)nc2c1ncn2[C@H]1[C@H](O)[C@H](O)[C@]2(C(=O)OC)C[C@H]12
[11]
  inhibition: 24%
[4]
  inhibition: 20%

## CNC(=O)[C@H]1O[C@@H](n2cnc3c(NC)cc(C#Cc4ccc(F)s4)nc32)[C@H](O)[C@@H]1O
[11]; filed as agonist
  inhibition: 47%
[4]
  inhibition: 15%
[5]
  Ki: 26.6 nM
[6]
  Ki: 1200 nM

## CCCNc1nc(C#Cc2ccc(Cl)s2)nc2c1ncn2[C@@H]1O[C@H](C(=O)NC)[C@@H](O)[C@H]1O
[2]
  Ki: 1160 nM
[3]
  Ki: 315 nM
[4]; filed as agonist
  inhibition: 49%

## CCCNc1nc(C#Cc2ccc(Cl)s2)nc2c1ncn2[C@H]1[C@H](O)[C@H](O)[C@]2(C(=O)NC)C[C@H]12
[1]
  Activity: Active

## CCNc1cc(C#Cc2ccc(F)s2)nc2c1ncn2[C@H]1[C@H](O)[C@H](O)[C@]2(C(=O)NC)C[C@H]12
[11]
  inhibition: 31%
[12]
  inhibition: 53%
[4]; filed as agonist
  inhibition: 61%
[5]
  Ki: 2.78 nM
[6]
  Ki: 25 nM
[1]
  Activity: Active
[13]
  inhibition: 4%
